Reference: patent US11377496B2, “Targeting agent antibody conjugates and uses thereof” (The Scripps Research Institute, priority 2013, dated 2022)
Several values for one entry are separate records, joined by “and”; a condition that tells them apart may be missing. Identical values can stand only once. Like-named read-outs stand apart in the source and are kept apart here. Where a SMILES comes first, the peptide text is derived from it.

Columns and labels:
C4-2 cells = assay: Prophylactic mouse xenograft model, C4-2 cells mixed with hPBMCs; type: in vivo, NOD/SCID mice; details: 2 mg/kg IV daily for 10 days from Day 4; monitored 6 weeks
Protocol: FIG. 12 depicts in vivo efficacy studies of P-targeting agent antibody conjugate. In the prophylactic model, 1×10^6 C4-2 cells were mixed with 2×10^6 PBMCs (1:2 ratio) in Matrigel and injected SC into the right shoulder of male NOD-SCID mice. P-targeting agent antibody conjugate, unconjugated Fab, or PBS (n=6) were administered at 2 mg/kg everyday for 10 days by IV starting on Day 4. Tumors were monitored by external caliper measurements for regular intervals for 6 weeks.
We next established a mouse xenograft model to evaluate the in vivo efficacy of P-targeting agent antibody conjugate. Immunodeficient NOD/SCID mice were subcutaneously injected with a mixture of 1×10^6 C4-2 cells and 2×10^6 hPBMCs in matrigel (BD Bioscience). After 4 days, treatment was initiated by injecting 2 mg/kg of drug via the tail vein and continued for 10 days (n=6). In a control group, mice were injected with an unconjugated mixture of P-Phthal (3) and UCHT1 wild-type Fab, and another group of mice was injected with vehicle alone (n=6). Tumor growth was monitored by external caliper measurement. […] After confirming the prophylactic efficacy of P-targeting agent antibody conjugate, we carried a xenograft model in which we delayed treatment until we observed the formation of a palpable tumor. […]

CD3 = CD3 (Macaca fascicularis, UniProt Q95LI5); assay: Cyno cross-reactivity of anti-CD3 antibody; type: binding, cynomolgus macaque
CD3, sequence (Q95LI5 22-198): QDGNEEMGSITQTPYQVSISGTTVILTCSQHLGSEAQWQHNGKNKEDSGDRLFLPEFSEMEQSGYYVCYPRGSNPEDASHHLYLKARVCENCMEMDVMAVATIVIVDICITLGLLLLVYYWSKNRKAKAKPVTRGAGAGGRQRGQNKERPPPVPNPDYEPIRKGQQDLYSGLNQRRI
CD3, sequence (Q95LI8 22-171 partner): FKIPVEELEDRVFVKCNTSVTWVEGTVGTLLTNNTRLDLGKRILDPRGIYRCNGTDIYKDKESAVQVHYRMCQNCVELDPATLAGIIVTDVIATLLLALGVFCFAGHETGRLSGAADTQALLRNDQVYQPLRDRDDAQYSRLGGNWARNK
CD3, sequence (Q95LI7 23-181 partner): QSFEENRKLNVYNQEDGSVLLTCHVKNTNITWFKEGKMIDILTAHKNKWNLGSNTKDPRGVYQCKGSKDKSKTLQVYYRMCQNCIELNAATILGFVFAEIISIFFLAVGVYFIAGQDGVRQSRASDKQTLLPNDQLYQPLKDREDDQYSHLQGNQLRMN

C4-2 (PSMA+) cells = assay: In vitro cytotoxicity assays, C4-2 cells with PBMCs, 24 and 48 hours (Example 5); type: cell-based, human
Protocol: Peripheral blood mononuclear cells (PBMCs) were purified from fresh healthy human donor blood by conventional Ficoll-Hypaque gradient centrifugation. Purified PBMCs were washed and incubated in flasks in RPMI media with 10% FBS for 1 hours to remove any adherent cells. C4-2 (PSMA+) cells (target cells) were dissociated with 0.05% tryspin/EDTA solution (HyClone) and washed with RPMI with 10% FBS. 1×10^4 target cells were mixed with PBMCs at 1:10 ratio in […], and incubated with different concentrations of conjugated and unconjugated Fabs ([…]) for 24 and 48 hours at 37° C. Cytotoxicity of each well was measured for LDH (lactate dehydrogenase) levels in supernatant using Cytotox-96 non-radioactive cytotoxicity assay kit (Promega). Lysis solution ([…], provided in the same kit) was added to wells with only target cells to get the maximum killing, and spontaneous killing was measured from wells with effector and target cells treated with vehicle ([…]). The absorbance at 490 nm was recorded using SpectraMax 250 plate reader (Molecular Devices Corp.). Percent cytotoxicity was calculated by: % Cytotoxicity=(Absorbanceexpt−Absorbancespontaneous average)/(Absorbancemax killing average−Absorbancespontaneous average)×100

[1] = Pharmacokinetics in rats, intravenous, sandwich-ELISA; type: in vivo, Sprague Dawley rats; details: rat, 0.5 mg/kg
Protocol: We first evaluated the pharmacokinetics of the P-targeting agent antibody conjugate. Male Sprague Dawley rats (Charles River) were injected intravenously at time zero at 1 and 5 mg/kg for P-targeting agent antibody conjugate or 0.5 mg/kg for the unconjugated UCHT1 Fab. Blood was collected at regular intervals to 32 hours and processed to measure drug concentrations using a sandwich-ELISA. […] Also, the small size of P-targeting agent antibody conjugate may be advantageous for penetrating solid tumors.

mPSMA = mPSMA (Mus musculus, UniProt O35409); details: cited from earlier work
mPSMA, sequence (O35409 whole entry): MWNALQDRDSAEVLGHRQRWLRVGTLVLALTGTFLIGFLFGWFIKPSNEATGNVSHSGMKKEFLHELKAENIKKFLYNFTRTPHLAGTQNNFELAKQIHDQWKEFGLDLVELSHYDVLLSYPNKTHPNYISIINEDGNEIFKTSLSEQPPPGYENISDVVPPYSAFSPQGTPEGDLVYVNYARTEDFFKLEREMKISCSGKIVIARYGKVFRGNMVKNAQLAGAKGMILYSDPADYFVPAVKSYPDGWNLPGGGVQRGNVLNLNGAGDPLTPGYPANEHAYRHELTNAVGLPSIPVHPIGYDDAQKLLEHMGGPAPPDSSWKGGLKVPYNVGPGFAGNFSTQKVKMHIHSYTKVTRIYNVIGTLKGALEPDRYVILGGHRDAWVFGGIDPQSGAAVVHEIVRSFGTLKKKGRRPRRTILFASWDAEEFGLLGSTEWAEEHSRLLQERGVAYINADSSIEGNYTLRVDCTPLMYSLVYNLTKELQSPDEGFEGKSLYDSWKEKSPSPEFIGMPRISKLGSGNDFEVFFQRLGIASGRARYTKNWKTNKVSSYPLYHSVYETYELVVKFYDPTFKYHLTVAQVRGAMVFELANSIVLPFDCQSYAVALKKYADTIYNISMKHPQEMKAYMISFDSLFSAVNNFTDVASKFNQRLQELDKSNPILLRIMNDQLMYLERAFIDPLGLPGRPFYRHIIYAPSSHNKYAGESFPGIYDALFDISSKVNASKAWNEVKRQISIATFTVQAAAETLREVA

cynoPSMA = details: previous reports; cited from earlier work
rhPSMA = molecular target: T1, rhPSMA (Homo sapiens, UniProt Q04609); assay: PSMA inhibition assay; type: biochemical; details: for Relative Fluorescence Units: glutamic acid readout, Amplex Red; for RFU: KM measurement
T1 construct: purchased R&D research
T1 sequence (Q04609 whole entry): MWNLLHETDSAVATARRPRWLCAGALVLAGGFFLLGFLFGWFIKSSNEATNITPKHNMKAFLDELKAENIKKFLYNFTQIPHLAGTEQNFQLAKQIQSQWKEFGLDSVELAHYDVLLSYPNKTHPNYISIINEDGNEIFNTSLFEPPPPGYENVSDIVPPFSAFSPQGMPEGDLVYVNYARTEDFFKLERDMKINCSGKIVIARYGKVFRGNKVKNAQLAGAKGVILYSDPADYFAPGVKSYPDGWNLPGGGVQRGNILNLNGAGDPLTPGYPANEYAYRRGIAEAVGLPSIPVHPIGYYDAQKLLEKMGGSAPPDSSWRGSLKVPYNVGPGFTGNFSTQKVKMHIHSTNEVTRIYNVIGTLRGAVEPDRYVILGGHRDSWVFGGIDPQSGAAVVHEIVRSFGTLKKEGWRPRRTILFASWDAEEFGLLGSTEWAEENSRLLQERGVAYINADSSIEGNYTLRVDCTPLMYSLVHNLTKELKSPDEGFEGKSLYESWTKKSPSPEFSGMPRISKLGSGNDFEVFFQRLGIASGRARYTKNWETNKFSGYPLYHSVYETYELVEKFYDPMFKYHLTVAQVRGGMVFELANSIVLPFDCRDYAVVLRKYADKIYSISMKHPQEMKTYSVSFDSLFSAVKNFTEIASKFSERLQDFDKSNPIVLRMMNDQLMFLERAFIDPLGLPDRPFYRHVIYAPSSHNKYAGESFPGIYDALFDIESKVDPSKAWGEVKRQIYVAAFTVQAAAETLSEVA
Protocol: A 10 mM solution of N-acetyl-aspartyl-glutamate (NAAG) in 40 mM NaOH was diluted to 40 μM in Reaction Buffer (0.1 M Tris-HCl, pH=7.5), and the solution was added to a 384 well plate (10 μL per well). For KM measurements and KM negative controls (absence of PSMA), the NAAG solution was serially diluted 2-fold to obtain final NAAG concentrations ranging […]. […] To initiate reactions, 10 μL of rhPSMA ([…] in Reaction Buffer, R&D research) was added to each well. Reaction Buffer (10 μL) was added to the KM control series. The plate was incubated at 37° C. for 30 min, and then heated to 95° C. for 3 min. Levels of glutamic acid were quantified using Amplex® Red Glutamic Acid/Glutamate Oxidase Assay Kit (Invitrogen). Fluorescence intensities were measured using a SpectraMax Gemini EM microplate reader (GMI) with excitation and emission filters of 545 and 590 nm, respectively. Ki values were calculated using the Cheng-Prusoff equation from IC50 and KM values and these values were calculated using GraphPad Prism software. […] All reported data represent the mean of triplicate experiments.

[2] = average of three trials, read-out: Average Ki
[3] = enzyme-based inhibition assay, read-out: average Ki

| Molecule | IC50 (rhPSMA; Trials 1-3) | Ki (rhPSMA; [2]) | Ki (rhPSMA; [3]) | Relative Fluorescence Units (rhPSMA; inhibitor 0.0000256 μM) | Relative Fluorescence Units (rhPSMA; inhibitor 0.000128 μM) | Relative Fluorescence Units (rhPSMA; inhibitor 0.00064 μM) | Relative Fluorescence Units (rhPSMA; inhibitor 0.0032 μM) | Relative Fluorescence Units (rhPSMA; inhibitor 0.016 μM) | Relative Fluorescence Units (rhPSMA; inhibitor 0.08 μM) | Relative Fluorescence Units (rhPSMA; inhibitor 0.4 μM) | Relative Fluorescence Units (rhPSMA; inhibitor 2 μM) | Relative Fluorescence Units (rhPSMA; inhibitor 10 μM) | Relative Fluorescence Units (rhPSMA; inhibitor 50 μM) | further results |
| --- | --- | --- | --- | --- | --- | --- | --- | --- | --- | --- | --- | --- | --- | --- |
| wt-UCHT1 | – | – | – | – | – | – | – | – | – | – | – | – | – | tumor growth (in words) (C4-2 cells): developed rapid tumors; cyno cross-reactivity (in words) (CD3): not sufficiently cyno cross-reactive; % Cytotoxicity (C4-2 (PSMA+) cells; 24 h, 0.0512 pM): −0.1753%; % Cytotoxicity (C4-2 (PSMA+) cells; 24 h, 0.256 pM): −0.8764%; % Cytotoxicity (C4-2 (PSMA+) cells; 24 h, 1.28 pM): −0.9115%; % Cytotoxicity (C4-2 (PSMA+) cells; 24 h, 6.4 pM): −0.4733%; % Cytotoxicity (C4-2 (PSMA+) cells; 24 h, 32 pM): −0.7537%; % Cytotoxicity (C4-2 (PSMA+) cells; 24 h, 160 pM): −0.4032%; % Cytotoxicity (C4-2 (PSMA+) cells; 24 h, 800 pM): 1.192%; % Cytotoxicity (C4-2 (PSMA+) cells; 24 h, 4000 pM): 1.858%; % Cytotoxicity (C4-2 (PSMA+) cells; 48 h, 0.01024 pM): −0.609%; % Cytotoxicity (C4-2 (PSMA+) cells; 48 h, 0.0512 pM): −1.023%; % Cytotoxicity (C4-2 (PSMA+) cells; 48 h, 0.256 pM): −0.5196%; % Cytotoxicity (C4-2 (PSMA+) cells; 48 h, 1.28 pM): −0.0812%; % Cytotoxicity (C4-2 (PSMA+) cells; 48 h, 6.4 pM): −0.4872%; % Cytotoxicity (C4-2 (PSMA+) cells; 48 h, 32 pM): −1.104%; % Cytotoxicity (C4-2 (PSMA+) cells; 48 h, 160 pM): −0.9419%; % Cytotoxicity (C4-2 (PSMA+) cells; 48 h, 800 pM): 4.872%; circulating half-life [1]: ~1 h |
| O=C(O)CCC(NC(=O)NC(CCC(=O)O)C(=O)O)C(=O)O (stereo not drawn) [DUPA, 2-[3-(1,3-dicarboxypropy)ureidol]pentanedioic acid] | – | – | – | – | – | – | – | – | – | – | – | – | – | binding to mPSMA (in words) (mPSMA): strongly binds; inhibition of glutamate carboxy peptidase activity of cynoPSMA (in words) (cynoPSMA): efficiently inhibited |
| NOCC(=O)NCCOCCOCCNC(=O)c1ccc(C(=O)NCCOCCOCCNC(=O)CCCCCCCNC(=O)CCC(NC(=O)NC(CCC(=O)O)C(=O)O)C(=O)O)cc1 (stereo not drawn) [P-Phthal] | 208 nM and 397 nM and 223 nM | 1.98 nM | 2 nM | 1609 | 1592.5445 | 1633.913 | 1542.606 | 1387.603 | 1274 | 1021 | 798.9 | 688.1815 | 581.035 | – |
| NOCC(=O)NCCOCCOCCNc1cc(NCCOCCOCCNC(=O)CCCCCCCNC(=O)CCC(NC(=O)NC(CCC(=O)O)C(=O)O)C(=O)O)c([N+](=O)[O-])cc1[N+](=O)[O-] (stereo not drawn) [P-DNP] | 7.28 nM and 4.46 nM and 4.58 nM | 0.0482 nM | – | 1650.519 | 1558 | 1413.9875 | 1123.0625 | 896.8 | 704.2 | 622.7 | 586.843 | 581.8 | 525.6755 | – |
| NOCC(=O)NCCOCCOCCOCCNC(=O)c1ccc(C(=O)NCCCCCCc2cn(CCCC[C@H](NC(=O)N[C@@H](CCC(=O)O)C(=O)O)C(=O)O)nn2)cc1 [P-TriA, (S)-2-(3-((S)-5-(4-(6-(4-(1-(aminooxy)-2-oxo-6,9,12-trioxa-3-azatetradecan-14-ylcarbamoyl)benzamido)hexyl)-1H-1,2,3-triazol-1-yl)-1-carboxypentyl)ureido)pentanedioic acid] | – | 0.00478 nM | 0.0048 nM | 1619 | 1499.6145 | 1259 | 950.487 | 817.1 | 664.949 | 586.721 | 562.9 | 599.969 | 559.8 | Ki (rhPSMA; Trials 1-3, Cheng-Prusoff equation from IC50 and KM, read-out: Ki): 0.00613 nM and 0.0023 nM and 0.00591 nM; enhanced affinity (rhPSMA; compared to P-Phthal): more than 400 fold |
| CC(=O)N[C@@H](CC(=O)O)C(=O)N[C@@H](CCC(=O)O)C(=O)O [NAAG, N-acetyl-aspartyl-glutamate, reference compound] (Ac-Asp-Glu-OH) | – | – | – | – | – | – | – | – | – | – | – | – | – | RFU (rhPSMA; NAAG 0.15625 μM): 403; RFU (rhPSMA; NAAG 0.3125 μM): 400.6455; RFU (rhPSMA; NAAG 0.625 μM): 422.2; RFU (rhPSMA; NAAG 1.25 μM): 434.8145; RFU (rhPSMA; NAAG 2.5 μM): 447; RFU (rhPSMA; NAAG 5 μM): 480.622; RFU (rhPSMA; NAAG 10 μM): 549.6; RFU (rhPSMA; NAAG 20 μM): 653.474; Km (rhPSMA; substrate NAAG): 0.288 µM |
